# Laboratory results from patent US10716788B2, “Methods for treating MS using pyrimidine and pyridine compounds with BTK inhibitory activity” (Merck Patent GmbH, priority 2015, dated 2020).
# What was measured:
# [1] = test system: PLP139-151 induced EAE in female SJL mice; test: PLP139-151 induced EAE in SJL mice (relapsing remitting mouse model of MS); type: in vivo; settings: for relapse activity / relapses: FIG. 2 / FIG. 10
# RA models = settings: 3 mg/kg PO; cited from earlier work
# [2] = prophylactic treatment from Day 0 post-induction, 0.3, 1.0, 3 mg/kg PO QD, FIG. 1 / FIG. 9
# [3] = prophylactic treatment from Day 0 post-induction, 0.3, 1.0, 3 mg/kg PO QD
# [4] = therapeutic dosing from Day 9 post-induction, 1.0, 3, 10 mg/kg PO QD, FIG. 15
smiles,measurement,setting,value
"C=CC(=O)N1CCC(CNc2ncnc(N)c2-c2ccc(Oc3ccccc3)cc2)CC1 [Compound (1), 1-(4-(((6-amino-5-(4-phenoxyphenyl)pyrimidin-4-yl)amino)methyl)piperidin-1-yl)prop-2-en-1-one]",disease onset,"[1]; prophylactic treatment from Day 0 post-induction, 0.3, 1.0, 3 mg/kg PO QD, FIG. 1",delayed onset
same,disease severity (clinical score),[1]; [2],reduced disease severity
same,relapse activity / relapses,[1]; [3],reduced relapse activity
same,disease severity (clinical score),"[1]; therapeutic treatment, start at remission, 1, 3, 10 mg/kg PO QD, FIG. 3",reduced disease severity
same,relapse activity,"[1]; therapeutic treatment, start at remission, 1, 3, 10 mg/kg PO QD, FIG. 4",reduced relapse activity
"C=CC(=O)N1CCC(F)(CNc2ncnc(N)c2-c2ccc(Oc3ccccc3)cc2)CC1 [Compound (2), 1-(4-(((6-amino-5-(4-phenoxyphenyl)pyrimidin-4-yl)amino)methyl)-4-fluoropiperidin-1-yl)prop-2-en-1-one]",number of relapses,"[1]; dosing from Day 7 post-induction (before onset of EAE), 1.0 and 10 mg/kg PO QD, FIG. 21",reduced the number of relapses
same,disease severity (clinical score),[1]; [2],significantly decreases disease severity
same,relapse activity / relapses,[1]; [3],decreased
same,incidence of disease,"[1]; prophylactic treatment from Day 0 post-induction, 0.3, 1.0, 3 mg/kg PO QD, FIG. 10",decreased incidence of disease
same,disease severity (clinical score),"[1]; semi-therapeutic dosing from Day 7 post-induction (before onset of EAE), 1.0 and 10 mg/kg PO QD, FIG. 20",reduced disease severity
same,disease severity (clinical score),"[1]; therapeutic dosing from Day 9 post-induction, 1.0, 3, 10 mg/kg PO QD, FIG. 14",reduced disease severity
same,relapses,[1]; [4],decreased relapses
same,time to first relapse,[1]; [4],prolonged time to first relapse
same,disease severity (clinical score),"[1]; therapeutic dosing from Day 17 post-induction, 1.0 and 10 mg/kg PO QD, FIG. 18",reduced disease severity
same,number of relapses,"[1]; therapeutic dosing from Day 17 post-induction, 1.0 and 10 mg/kg PO QD, FIG. 19",reduced the number of relapses
same,efficacy on RA models,RA models,efficacious
